System: 883617-216-R-J1-PDC complex spheroid viability
Test: Anticancer human tumor 883617-216-R-J1-PDC patient-derived bladder carcinoma cell line growth inhibition [POLQ]
Settings: for IC50: curve of first compound; for viability, T/C: stronger effect = lower value
In short: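 Patient-derived tumour cells were co-cultured with HUVEC and mesenchymal stem cells as multicellular spheroids at 37 °C. They were treated with POLQ inhibitors (novobiocin, ART-558, RP6685) alone or combined with other agents. Top concentrations were at or near clinical Cmax (otherwise 10 microM; SN-38 at 1 microM), decreasing in half-log steps.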

[1] = second compound 0.0316 µM, first compound 0.0316 µM
[2] = second compound 0.0316 µM, first compound 0.1 µM
[3] = second compound 0.0316 µM, first compound 0.316 µM
[4] = second compound 0.0316 µM, first compound 1 µM
[5] = second compound 0.0316 µM, first compound 3.16 µM
[6] = second compound 0.0316 µM, first compound 10 µM
[7] = second compound 0.1 µM, first compound 0.0316 µM
[8] = second compound 0.1 µM, first compound 0.1 µM
[9] = second compound 0.1 µM, first compound 0.316 µM
[10] = second compound 0.1 µM, first compound 1 µM
[11] = second compound 0.1 µM, first compound 3.16 µM
[12] = second compound 0.1 µM, first compound 10 µM
[13] = second compound 0.316 µM, first compound 0.0316 µM
[14] = second compound 0.316 µM, first compound 0.1 µM
[15] = second compound 0.316 µM, first compound 0.316 µM
[16] = second compound 0.316 µM, first compound 1 µM
[17] = second compound 0.316 µM, first compound 3.16 µM
[18] = second compound 0.316 µM, first compound 10 µM
[19] = second compound 1 µM, first compound 0.0316 µM
[20] = second compound 1 µM, first compound 0.1 µM
[21] = second compound 1 µM, first compound 0.316 µM
[22] = second compound 1 µM, first compound 1 µM
[23] = second compound 1 µM, first compound 3.16 µM
[24] = second compound 1 µM, first compound 10 µM
[25] = second compound 3.16 µM, first compound 0.0316 µM
[26] = second compound 3.16 µM, first compound 0.1 µM
[27] = second compound 3.16 µM, first compound 0.316 µM
[28] = second compound 3.16 µM, first compound 1 µM
[29] = second compound 3.16 µM, first compound 3.16 µM
[30] = second compound 3.16 µM, first compound 10 µM
[31] = second compound 10 µM, first compound 0.0316 µM
[32] = second compound 10 µM, first compound 0.1 µM
[33] = second compound 10 µM, first compound 0.316 µM
[34] = second compound 10 µM, first compound 1 µM
[35] = second compound 10 µM, first compound 3.16 µM
[36] = second compound 10 µM, first compound 10 µM
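Further: spheroids exposed to compounds for seven days before readout.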
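Wherever viability, T/C is given: 100% = DMSO vehicle control viability.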

CC1COCCN1c1cc(-c2ccnn2C)c2ccnc(-c3ccn[nH]3)c2n1 (stereo not drawn) + Cc1cccc(N(C)C(=O)C2C(O)CCN2c2nc(C)cc(C(F)(F)F)c2C#N)c1
IC50 (second compound 0.0316 µM): 205 nM
IC50 (second compound 0.1 µM): 291 nM
IC50 (second compound 0.316 µM): 273 nM
IC50 (second compound 1 µM): 257 nM
IC50 (second compound 3.16 µM): 204 nM
IC50 (second compound 10 µM): 334 nM
viability, T/C [1]: 89.1%
viability, T/C [2]: 61.4%
viability, T/C [3]: 43.2%
viability, T/C [4]: 34%
viability, T/C [5]: 31.7%
viability, T/C [6]: 29.4%
viability, T/C [7]: 72.7%
viability, T/C [8]: 59.1%
viability, T/C [9]: 53.2%
viability, T/C [10]: 35.7%
viability, T/C [11]: 29.9%
viability, T/C [12]: 34.7%
viability, T/C [13]: 83.6%
viability, T/C [14]: 63.1%
viability, T/C [15]: 48%
viability, T/C [16]: 39.3%
viability, T/C [17]: 32.9%
viability, T/C [18]: 30.9%
viability, T/C [19]: 83.2%
viability, T/C [20]: 66.1%
viability, T/C [21]: 48.1%
viability, T/C [22]: 32.1%
viability, T/C [23]: 32.6%
viability, T/C [24]: 30.3%
viability, T/C [25]: 72%
viability, T/C [26]: 60.6%
viability, T/C [27]: 43.9%
viability, T/C [28]: 32.9%
viability, T/C [29]: 33%
viability, T/C [30]: 30.7%
viability, T/C [31]: 96.7%
viability, T/C [32]: 60%
viability, T/C [33]: 58.1%
viability, T/C [34]: 37.9%
viability, T/C [35]: 38.9%
viability, T/C [36]: 28.2%

CC1COCCN1c1cc(C2(S(C)(=N)=O)CC2)nc(-c2ccnc3[nH]ccc23)n1 (stereo not drawn) + Cc1cccc(N(C)C(=O)C2C(O)CCN2c2nc(C)cc(C(F)(F)F)c2C#N)c1
IC50 (second compound 0.0316 µM): 3300 nM
IC50 (second compound 0.1 µM): 2860 nM
IC50 (second compound 0.316 µM): 2750 nM
IC50 (second compound 1 µM): 2760 nM
IC50 (second compound 3.16 µM): 2870 nM
IC50 (second compound 10 µM): 6000 nM
viability, T/C [1]: 97.7%
viability, T/C [2]: 91.2%
viability, T/C [3]: 92.8%
viability, T/C [4]: 77.5%
viability, T/C [5]: 50.9%
viability, T/C [6]: 30.8%
viability, T/C [7]: 102%
viability, T/C [8]: 89.9%
viability, T/C [9]: 87.7%
viability, T/C [10]: 65.2%
viability, T/C [11]: 48.6%
viability, T/C [12]: 36.1%
viability, T/C [13]: 88.2%
viability, T/C [14]: 96.4%
viability, T/C [15]: 94.7%
viability, T/C [16]: 77.8%
viability, T/C [17]: 46.6%
viability, T/C [18]: 38.6%
viability, T/C [19]: 108%
viability, T/C [20]: 93.5%
viability, T/C [21]: 84.3%
viability, T/C [22]: 68.4%
viability, T/C [23]: 43.9%
viability, T/C [24]: 37.2%
viability, T/C [25]: 105%
viability, T/C [26]: 94.1%
viability, T/C [27]: 93.1%
viability, T/C [28]: 65.8%
viability, T/C [29]: 50%
viability, T/C [30]: 38%
viability, T/C [31]: 119%
viability, T/C [32]: 91.4%
viability, T/C [33]: 112%
viability, T/C [34]: 74.4%
viability, T/C [35]: 67.6%
viability, T/C [36]: 37.8%

COc1ccc([C@@H](O)c2cc(-c3ncnc4cc(N5CCOCC5)ccc34)c(F)cc2Cl)nn1 + Cc1cccc(N(C)C(=O)C2C(O)CCN2c2nc(C)cc(C(F)(F)F)c2C#N)c1
IC50 (second compound 0.0316 µM): 2680 nM
IC50 (second compound 0.1 µM): 2210 nM
IC50 (second compound 0.316 µM): 2510 nM
IC50 (second compound 1 µM): 2530 nM
IC50 (second compound 3.16 µM): 2480 nM
IC50 (second compound 10 µM): 3570 nM
viability, T/C [1]: 90.4%
viability, T/C [2]: 105%
viability, T/C [3]: 76%
viability, T/C [4]: 75.5%
viability, T/C [5]: 42.4%
viability, T/C [6]: 36.9%
viability, T/C [7]: 98.3%
viability, T/C [8]: 84%
viability, T/C [9]: 85.8%
viability, T/C [10]: 67.9%
viability, T/C [11]: 41%
viability, T/C [12]: 31.4%
viability, T/C [13]: 99%
viability, T/C [14]: 101%
viability, T/C [15]: 86.3%
viability, T/C [16]: 71.6%
viability, T/C [17]: 43.5%
viability, T/C [18]: 33.4%
viability, T/C [19]: 100%
viability, T/C [20]: 98.3%
viability, T/C [21]: 81.9%
viability, T/C [22]: 63.4%
viability, T/C [23]: 48.4%
viability, T/C [24]: 32.8%
viability, T/C [25]: 107%
viability, T/C [26]: 99.8%
viability, T/C [27]: 90.4%
viability, T/C [28]: 61.4%
viability, T/C [29]: 49.7%
viability, T/C [30]: 33.8%
viability, T/C [31]: 117%
viability, T/C [32]: 92.5%
viability, T/C [33]: 90.5%
viability, T/C [34]: 65%
viability, T/C [35]: 52.3%
viability, T/C [36]: 35.6%

Cn1ncnc1[C@H]1c2n[nH]c(=O)c3cc(F)cc(c23)N[C@@H]1c1ccc(F)cc1 + Cc1cccc(N(C)C(=O)C2C(O)CCN2c2nc(C)cc(C(F)(F)F)c2C#N)c1
IC50 (second compound 0.0316 µM): > 100 nM
IC50 (second compound 0.1 µM): > 100 nM
IC50 (second compound 0.316 µM): > 100 nM
IC50 (second compound 1 µM): > 100 nM
IC50 (second compound 3.16 µM): > 100 nM
IC50 (second compound 10 µM): > 100 nM
viability, T/C (second compound 0.0316 µM, first compound 0.000316 µM): 99.2%
viability, T/C (second compound 0.0316 µM, first compound 0.001 µM): 101%
viability, T/C (second compound 0.0316 µM, first compound 0.00316 µM): 93.4%
viability, T/C (second compound 0.0316 µM, first compound 0.01 µM): 78%
viability, T/C [1]: 74.4%
viability, T/C [2]: 73.7%
viability, T/C (second compound 0.1 µM, first compound 0.000316 µM): 96.3%
viability, T/C (second compound 0.1 µM, first compound 0.001 µM): 96.3%
viability, T/C (second compound 0.1 µM, first compound 0.00316 µM): 96.9%
viability, T/C (second compound 0.1 µM, first compound 0.01 µM): 86.6%
viability, T/C [7]: 82.9%
viability, T/C [8]: 76.7%
viability, T/C (second compound 0.316 µM, first compound 0.000316 µM): 95.7%
viability, T/C (second compound 0.316 µM, first compound 0.001 µM): 98.3%
viability, T/C (second compound 0.316 µM, first compound 0.00316 µM): 94.2%
viability, T/C (second compound 0.316 µM, first compound 0.01 µM): 81.1%
viability, T/C [13]: 72.8%
viability, T/C [14]: 64.2%
viability, T/C (second compound 1 µM, first compound 0.000316 µM): 98.1%
viability, T/C (second compound 1 µM, first compound 0.001 µM): 98.6%
viability, T/C (second compound 1 µM, first compound 0.00316 µM): 88.6%
viability, T/C (second compound 1 µM, first compound 0.01 µM): 84.8%
viability, T/C [19]: 83%
viability, T/C [20]: 74%
viability, T/C (second compound 3.16 µM, first compound 0.000316 µM): 109%
viability, T/C (second compound 3.16 µM, first compound 0.001 µM): 96.8%
viability, T/C (second compound 3.16 µM, first compound 0.00316 µM): 94.8%
viability, T/C (second compound 3.16 µM, first compound 0.01 µM): 84.5%
viability, T/C [25]: 81.8%
viability, T/C [26]: 69.2%
viability, T/C (second compound 10 µM, first compound 0.000316 µM): 103%
viability, T/C (second compound 10 µM, first compound 0.001 µM): 100%
viability, T/C (second compound 10 µM, first compound 0.00316 µM): 98.4%
viability, T/C (second compound 10 µM, first compound 0.01 µM): 90.8%
viability, T/C [31]: 91.3%
viability, T/C [32]: 80.6%

— PubChem BioAssay AID1963833 (Molecular Pharmacology Branch, DTP, NCI, 2024)
